Measurements reported in article PMC5461506, “Strength of Neisseria meningitidis binding to endothelial cells requires highly-ordered CD147/β2-adrenoceptor clusters assembled by alpha-actinin-4” (Nature Communications, 2017).
No end group written: not given here. *: point of attachment. Biotin = O=C1N[C@H]2[C@H](CS[C@H]2CCCCC(=O)*)N1

Experiments:
[1] = test system: CD147–β2AR complex; experiment: BRET between CD147-Rluc and β2AR-YFP; type: cell-based, human; conditions: HEK293 cells
Description: HEK293 cells (2 × 10^5 per well of a 6-well plates) were transfected with 2 ng plasmid DNA coding for the BRET donor (CD147-Luc, CD147ΔD2-Luc) and increasing amounts of BRET acceptor plasmids (β2-YFP, CCR5-YFP; 0–400 ng per well). Twenty-four hours after transfection, cells were resuspended in Hank's balanced salt solution and distributed in 96-well plates (Perkin-Elmer plates; 10^5 cells per well). After addition of the luciferase substrate, coelenterazine h (5 μM final concentration), luminescence at 485 nm and fluorescence at 530 nm were measured simultaneously in a Mithras LB940 Plate Reader. The BRET ratio was calculated as: ((emission at 530 nm/emission at 485 nm)−(background at 530 nm/background at 485 nm)), where background corresponds to signals in cells expressing the Rluc fusion protein alone under the same experimental conditions. For better readability, results were expressed in milli-BRET units (mBRET), 1 mBRET corresponding to the BRET ratio multiplied by 1000. BRET ratios were plotted as a function of ([YFP-YFP0])/(Rluc), where YFP is the fluorescence signal at 530 nm after excitation at 485 nm, and Rluc the signal at 485 nm after addition of coelenterazine h. YFP0 and Rluc0 correspond to the same values in cells expressing the Rluc fusion protein alone. […]

[2] = test system: cytosolic tail of CD147; experiment: Surface plasmon resonance, immobilized CD147 cytosolic peptide; type: binding; conditions: SPR, non-reducing buffer
Description: (§1) For SPR experiments, the fusion proteins GST-Actn4, GST alone or the GST-FERM domain of ezrin used as a control were diluted either in a non-reducing (PBS, 0.02% Tween-20) or a reducing (10 mM HEPES, 150 mM NaCl, 1 mM EDTA, 1 mM dithiothreitol, 0.005% Tween-20) running buffer. To control the impact of these buffers on the dimerization status of Actn4, Actn4-GST or GST alone as a control (final concentration 100 nM) were incubated for 30 min with 250 μM freshly prepared solution of bissulfosuccinimidyl suberate crosslinker, then separated on SDS–PAGE gels and transferred to nitrocellulose to analyse their electrophoretic migration by immunoblot. Interaction studies between α-Actn4 and CD147 were performed on a BIAcore T200 Instrument (BIAcore Life Sciences, GE Healthcare Europe). Streptavidin-coated sensor chips (Series S sensor chip SA; GE Healthcare) were used to capture a biotinylated peptide encoding the cytosolic sequence of CD147 (Biotin-[…]) or the juxta-membrane region of CD44 (Biotin-NSRRRCGQKKKLVINSG), purchased from Proteogenix, at a flow rate of 5 μl min^−1 in the non-reducing or the reducing running buffer. The density was controlled at an increased response level of 630 and 286 response units (RUs), for CD147 and CD44, respectively depending on molecular weight. […] Output sensorgrams were analysed using the BIAevaluation 4.1.1 Software.

[3] = biological target: juxta-membrane cytosolic portion of CD44; experiment: Surface plasmon resonance, immobilized CD44 juxta-membrane peptide; type: binding; conditions: SPR, non-reducing buffer, BIAcore T200, read-out: dissociation constant (Kd)
Description: as §1

[4] = biological target: T1, recombinant glutathione-S-transferase (GST)–Actn4 fusion protein (human, UniProt O43707 1-911); experiment: SPR; BIAcore T200, biotinylated peptides captured on streptavidin chip (630 RU CD147, 286 RU CD44), GST fusions as analytes, non-reducing buffer (PBS, 0.02% Tween-20), 25 μl/min, 60 s association, 60 s dissociation; conditions: both partners purified
T1 construct: also called Actn4-GST; source: recombinant, purified

[5] = biological target: T1, recombinant glutathione-S-transferase …; experiment: SPR; BIAcore T200, biotinylated peptide captured on streptavidin chip, GST-Actn4 as analyte, reducing buffer (10 mM HEPES, 150 mM NaCl, 1 mM EDTA, 1 mM dithiothreitol, 0.005% Tween-20); apparent affinity; conditions: both partners purified
[6] = biological target: T2, GST-coupled four-point-one, ezrin, radixin, moesin (FERM) domain of ezrin (human, UniProt P15311 2-296); experiment: SPR; BIAcore T200, biotinylated peptides captured on streptavidin chip (630 RU CD147, 286 RU CD44), GST fusions as analytes, non-reducing buffer (PBS, 0.02% Tween-20), 25 μl/min, 60 s association, 60 s dissociation; conditions: both partners purified
T2 construct: also called GST-FERM domain of ezrin; ezrin FERM domain in fusion with GST
T2 sequence (P15311 2-296): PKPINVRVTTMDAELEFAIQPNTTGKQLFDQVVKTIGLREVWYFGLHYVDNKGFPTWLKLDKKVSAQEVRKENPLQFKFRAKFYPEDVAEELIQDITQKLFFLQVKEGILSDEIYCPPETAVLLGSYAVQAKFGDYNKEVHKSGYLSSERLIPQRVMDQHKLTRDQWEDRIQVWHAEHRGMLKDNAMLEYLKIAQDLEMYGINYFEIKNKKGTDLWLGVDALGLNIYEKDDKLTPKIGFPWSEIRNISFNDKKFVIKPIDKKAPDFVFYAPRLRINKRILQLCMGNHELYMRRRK

T1 sequence (O43707 whole entry, the tested form may be a part): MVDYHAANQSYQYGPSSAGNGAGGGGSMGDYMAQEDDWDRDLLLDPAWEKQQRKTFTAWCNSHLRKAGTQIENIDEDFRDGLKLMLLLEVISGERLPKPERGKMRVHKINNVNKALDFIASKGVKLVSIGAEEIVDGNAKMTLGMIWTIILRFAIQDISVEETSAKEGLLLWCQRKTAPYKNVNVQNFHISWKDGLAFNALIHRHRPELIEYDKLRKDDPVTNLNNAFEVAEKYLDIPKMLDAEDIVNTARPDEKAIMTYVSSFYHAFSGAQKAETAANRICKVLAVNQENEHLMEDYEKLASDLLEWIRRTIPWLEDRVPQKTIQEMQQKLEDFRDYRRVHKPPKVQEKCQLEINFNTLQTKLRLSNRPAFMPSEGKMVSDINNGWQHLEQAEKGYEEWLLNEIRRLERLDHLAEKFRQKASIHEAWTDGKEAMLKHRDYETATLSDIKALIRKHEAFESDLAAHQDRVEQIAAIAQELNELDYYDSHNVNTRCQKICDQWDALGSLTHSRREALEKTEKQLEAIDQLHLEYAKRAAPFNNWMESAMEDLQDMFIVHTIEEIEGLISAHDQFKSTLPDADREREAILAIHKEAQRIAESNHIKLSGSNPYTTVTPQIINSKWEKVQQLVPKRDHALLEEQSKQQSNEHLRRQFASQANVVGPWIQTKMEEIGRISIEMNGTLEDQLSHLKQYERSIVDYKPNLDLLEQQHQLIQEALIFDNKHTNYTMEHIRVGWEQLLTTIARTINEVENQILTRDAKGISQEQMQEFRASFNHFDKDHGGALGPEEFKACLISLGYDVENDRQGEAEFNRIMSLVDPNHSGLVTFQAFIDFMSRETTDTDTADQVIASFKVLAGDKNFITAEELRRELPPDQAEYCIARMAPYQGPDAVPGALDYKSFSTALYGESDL

**Q.** Which “effect on isoproterenol-induced BRET reduction” value ([1]; 10 μM isoproterenol in combination with 10 μM propranolol, 20 min) does the source give for CC(C)NCC(O)COc1cccc2ccccc12 (centres unmarked) [propranolol] here?
**A.** The value was “This effect was inhibited”.

**Q.** For CC(C)NCC(O)c1ccc(O)c(O)c1 (centres unmarked) [isoproterenol], which “BRET signal between CD147 and β2AR” value ([1]; 2 ng CD147-Rluc, 20 ng β2AR-YFP, isoproterenol 10 μM, read every 2 min for 20 min, mean±s.e.m., n=3, representative of four experiments) is on record?
**A.** Its value is “reduced”.

**Q.** With “GST-coupled four-point-one, ezrin, radixin, moesin (FERM) domain of ezrin: GST-FERM domain of ezrin used as a control” as the molecule, how does the “interaction with immobilized CD147 peptide” value [2] read?
**A.** The value was “poorly interacted with the CD147 peptide”.

**Q.** What about the Kd [3] of the same molecule?
**A.** Its Kd is 4.3 ± 0.1 nM.

B1: biotinylated peptide encoding the cytosolic sequence of CD147 (peptide)
peptide: Biotin-AYDKRRKPEDVLDDDDAGSAPLKSSGQHQNDKGKNVRQRNSS
notes: also called CD147-CT; CD147 peptide; source: synthetic peptide, bought: ProteoGenix
**Q.** Which Kd [4] does the source give for B1 here?
**A.** The Kd was 4 ± 0.01 nM.

**Q.** And the Kd [5]?
**A.** Its Kd is 44600 ± 32500 nM.

B2: biotinylated peptide of the juxta-membrane region of CD44 (peptide)
peptide: Biotin-NSRRRCGQKKKLVINSG
notes: also called cytosolic tail of CD44; juxta-membrane cytosolic portion of CD44; source: synthetic peptide, bought: ProteoGenix
**Q.** Which Kd [6] does the source give for B2 here?
**A.** Its Kd is 4.3 ± 0.1 nM.

**Q.** What about the Kd [4] of the same molecule?
**A.** Its Kd is 159 ± 43 nM.
